Literature values in patent publication US10583082B2, “Composition comprising at least two dry powders obtained by spray drying to increase the stability of the formulation” (Eratech S.R.L., priority 2013, dated 2020).

conditions: from US 2001/0036481 A1

| phospholipid transition temperature (Tg) with humidity | Structure (SMILES) |
| --- | --- |
| 41 °C | CCCCCCCCCCCCCCCC(=O)OC[C@H](COP(=O)([O-])OCC[N+](C)(C)C)OC(=O)CCCCCCCCCCCCCCC [DPPC, dipalmitoylphosphatidylcholine] |
| 63 °C | CCCCCCCCCCCCCCCC(=O)OCC(COP(=O)(O)OCCN)OC(=O)CCCCCCCCCCCCCCC (stereo not drawn) [DPPE, dipalmitoylphosphatidylethanolamine] |
| 55 °C | CCCCCCCCCCCCCCCCCC(=O)OC[C@H](COP(=O)([O-])OCC[N+](C)(C)C)OC(=O)CCCCCCCCCCCCCCCCC [DSPC, distearoylphosphatidylcholine] |
